{"source": "patent US11332771B2", "about": "“Serum-free cell culture medium” (Regeneron Pharmaceuticals, Inc., priority 2013, dated 2022)", "key": {"[1]": {"test_system": "recombinant antibody producing cell line derived from CHO K1 cells", "assay": "Cell doubling time in logarithmic growth phase, seed train cultures passaged over 14 days", "format": "cell-based, Chinese hamster", "conditions": "ornithine.HCl 100 mg/L, with or without putrescine.2HCl 115 mg/L", "experimental": "The doubling time of a recombinant antibody producing cell line derived from CHO K1 cells in logarithmic growth phase was determined under various cell culture media conditions. Seed train cultures were passaged at 36.5° C. in 250 mL shaker flasks over a period of 14 days in each of three separate media: Medium 1, Medium 2, and Medium 2 containing soy hydrolysate (Medium 2+ Soy). Aliquots of 1 mL were removed from each condition on Day 0 and at the time of seed train passage (every 2 or 3 days), and viable cell counts were conducted using trypan blue exclusion on a CDV™ instrument (Nova Biomedical)."}, "[2]": {"test_system": "recombinant antibody producing cell line derived from CHO K1", "assay": "Antibody titer in Medium 3 with various amounts of ornithine.HCl, 50 mL TubeSpin Bioreactors", "format": "cell-based, Chinese hamster", "conditions": "Medium 3, three days, all three levels of ornithine supplementation, N=3", "source_text": "The results are depicted in Table 6."}, "CHO-K1 derived cell line": {"test_system": "CHO-K1 derived cell line", "conditions": "for Average seven-day antibody titer: 100 mg/L ornithine.HCl, with or without 115 mg/L putrescine.2HCl", "quoted_text": "We examined the expression and secretion of recombinant IgG by a CHO-K1 derived cell line. In this experiment, the average antibody titer was determined at day seven in culture under various media formats."}}, "note": "Where a name gives a salt, the structure may show the parent alone. Read-outs that look alike come from different tables or passages of the source."}
{"compound": "NCCC[C@H](N)C(=O)O", "note": "[Ornithine, L-ornithine.HCl]", "values": [{"measurement": "Cell doubling time", "setting": "[1]; Medium 1", "value": 23, "unit": "h"}, {"measurement": "Cell doubling time", "setting": "[1]; Medium 2 + Soy", "value": 20.5, "unit": "h"}, {"measurement": "Cell doubling time", "setting": "[1]; Medium 2", "value": 21, "unit": "h"}, {"measurement": "Improvement of antibody titer on the average", "setting": "[2]", "value": "more than 50%"}, {"measurement": "Average seven-day antibody titer", "setting": "CHO-K1 derived cell line; Medium 1", "value": 0.94, "unit": "g/L"}, {"measurement": "Average seven-day antibody titer", "setting": "CHO-K1 derived cell line; Medium 2 + Soy", "value": 0.98, "unit": "g/L"}, {"measurement": "Average seven-day antibody titer", "setting": "CHO-K1 derived cell line; Medium 2", "value": 0.65, "unit": "g/L"}, {"measurement": "Increase in protein titer", "setting": "CHO-K1 derived cell line; day seven, in all cases (Medium 1, Medium 2, Medium 2+ Soy), versus low putrescine 0.4 mg/L", "value": "at least about two-fold"}]}
